Calls of active or inactive are those of the source. The rule behind the calls is not given here.
Columns and labels:
[1] = Induction of Pradimicin-FA1 aggregation assessed as concentration required to induce 50% aggregation incubated for 15 mins and further incubated for 30 mins at room temperature by RP-HPLC analysis
[2] = Binding affinity to Pradimicin A assessed as suppression of pradimicin A induced growth inhibition of Candida rugosa AJ14513 by measuring minimum antagonistic concentration measured after 48 hrs by visual analysis
[3] = Binding affinity to Pradimicin A assessed as pradimicin A/Ca2+/compound ternary complex formation by measuring molar ratio at 50 umol incubated at 60 degreeC for 15 mins and room temperature for 1 hr in presence of CaCl2 and further incubated at 4 degreeC for 1 hr by coprecipitation based 1H-NMR analysis; details: dose 50.0 µmol, time 2.25 hrs
SARS-CoV-2 [4] = experiment: Antiviral activity against SARS-CoV-2 JPN/NGS/SC-1/2020 infected in human Calu-3 cells assessed as inhibition of viral infection at 6.25 uM pretreated with cells for 1 hr followed by viral infection and measured after 3 days by immunofluorescence analysis relative to control; format: functional, Severe acute respiratory syndrome coronavirus 2; parameters: scale not given: the % may be the effect or the level left; details: time 73 hrs
SARS-CoV-2 [5] = experiment: Antiviral activity against SARS-CoV-2 JPN/NGS/SC-1/2020 infected in human Calu-3 cells assessed as inhibition of viral infection pretreated with cells for 1 hr followed by viral infection and measured after 3 days by immunofluorescence analysis; format: functional, organism-based; details: Severe acute respiratory syndrome coronavirus 2, JPN/NGS/SC-1/2020, Calu-3
Diutina rugosa = experiment: Antifungal activity against Candida rugosa AJ14513 assessed as inhibition of fungal growth at 32 ug/ml measured after 48 hrs by visual analysis relative to control; format: functional
SARS-CoV-2 [6] = experiment: Antiviral activity against SARS-CoV-2 JPN/NGS/SC-1/2020 infected in human Calu-3 cells assessed as inhibition of viral infection at 6.25 uM pretreated with cells for 1 hr in presence of (2S,3S,4S,5R,6R)-4-(((2S,3R,4S,5S,6R)-3,4,5-trihydroxy-6-(hydroxymethyl)tetrahydro-2H-pyran-2-yl)oxy)-6-((((2S,3S,4S,5S,6R)-3,4,5-trihydroxy-6-(hydroxymethyl)tetrahydro-2H-pyran-2-yl)oxy)methyl)tetrahydro-2H-pyran-2,3,5-triol followed by viral infection and measured after 3 days by immunofluorescence analysis; format: functional, organism-based; details: Severe acute respiratory syndrome coronavirus 2, time 73.0 hrs
Calu-3 = experiment: Cytotoxicity against human Calu-3 cells infected with SARS-CoV-2 JPN/NGS/SC-1/2020 assessed as reduction in cell viability at 0.3 to 100 uM pretreated with cells for 1 hr followed by viral infection and measured after 3 days; format: toxicity, cell-based; details: calu-3, 73 h, dose 0.3-100 µM

`CO[C@H]1O[C@H](CO[C@H]2O[C@H](CO)[C@@H](O)[C@H](O)[C@@H]2OC)[C@@H](O)[C@H](O[C@@H]2O[C@H](CO)[C@@H](O)[C@H](O)[C@H]2OC)[C@@H]1O` gave an AC50 [1] of over 10 mM and an MAC [2] of over 64 mM.

With `CO[C@H]1O[C@H](CO)[C@@H](O)[C@H](O)[C@H]1O` the Ratio [3] was 0.05.

For `CO[C@H]1O[C@H](CO)[C@@H](O)[C@H](O)[C@@H]1O[C@@H]1O[C@H](CO)[C@@H](OC)[C@H](O)[C@@H]1NC(C)=O`, the AC50 [1] was over 10 mM and the MAC [2] was over 64 mM.

Work on `CO[C@H]1O[C@H](CO)[C@@H](O)[C@H](O)[C@@H]1O` yielded an AC50 [1] of 5 mM, an MAC [2] of 16 mM and a Ratio [3] of 0.96.

`CO[C@H]1O[C@H](CO[C@H]2O[C@H](CO)[C@@H](O)[C@H](O)[C@@H]2O[C@H]2O[C@H](CO)[C@@H](O)[C@H](O)[C@@H]2O)[C@@H](O)[C@H](O[C@H]2O[C@H](CO)[C@H](O)[C@@H](O)[C@@H]2O[C@@H]2O[C@H](CO)[C@@H](O)[C@H](O)[C@H]2O)[C@@H]1O` gave an AC50 [1] of 0.07 mM and an MAC [2] of 1 mM.

Compound `CO[C@H]1O[C@H](CO)[C@@H](O[C@@H]2O[C@H](CO)[C@H](OC)[C@H](O)[C@H]2NC(C)=O)[C@H](O)[C@@H]1NC(C)=O` has an AC50 [1] of over 10 mM and an MAC [2] of over 64 mM.

Work on `CN[C@@H]1[C@H](O[C@@H]2OC[C@@H](O)[C@H](O)[C@H]2O)[C@@H](O)[C@H](O[C@H]2c3cc(C)c(C(=O)N[C@H](C)C(=O)O)c(O)c3-c3c(cc4c(c3O)C(=O)c3cc(OC)cc(O)c3C4=O)[C@@H]2O)O[C@@H]1C` [PRADIMICIN A] yielded an Activity (SARS-CoV-2 [4]) of about 100%, an IC50 (SARS-CoV-2 [5]) of 0.0012 mM and an inhibition at 32 µg/mL (Diutina rugosa) of 100%. For the same compound, the Activity (SARS-CoV-2 [6]) was “inactive” and the Activity (Calu-3) was “Non-Toxic”.

In the case of `CO[C@H]1O[C@H](CO)[C@@H](O)[C@H](O)[C@@H]1O[C@@H]1O[C@H](CO)[C@@H](O)[C@H](O)[C@@H]1NC(C)=O`, the AC50 [1] is reported as over 10 mM and the MAC [2] is reported as over 64 mM.

For `OC[C@H]1O[C@H](OC[C@H]2O[C@H](O)[C@@H](O)[C@@H](O[C@@H]3O[C@H](CO)[C@@H](O)[C@H](O)[C@H]3O)[C@@H]2O)[C@@H](O)[C@@H](O)[C@@H]1O`, the AC50 [1] was 0.06 mM, the MAC [2] was 1 mM and the Ratio [3] was 0.52.

Work on `CO[C@H]1O[C@H](CO)[C@@H](O[C@@H]2O[C@H](CO)[C@H](O)[C@H](O)[C@H]2O)[C@H](O)[C@@H]1NC(C)=O` yielded an AC50 [1] of over 10 mM and an MAC [2] of over 64 mM.

`CO[C@@H]1O[C@H](CO[C@]2(C(=O)O)C[C@H](O)[C@@H](NC(C)=O)[C@H]([C@@H](O)[C@H](O)CO)O2)[C@H](O)[C@H](O)[C@H]1O` showed an AC50 [1] of over 10 mM and an MAC [2] of over 64 mM.

In the case of `CO[C@H]1O[C@H](CO[C@H]2O[C@H](CO)[C@@H](O)[C@H](O)[C@@H]2O)[C@@H](O)[C@H](O[C@@H]2O[C@H](CO)[C@@H](O)[C@H](O)[C@H]2O)[C@@H]1O`, the AC50 [1] is reported as over 10 mM and the MAC [2] is reported as 16 mM.

Work on `CO[C@H]1O[C@H](CO[C@H]2O[C@H](CO)[C@@H](O)[C@H](O)[C@H]2O)[C@@H](O)[C@H](O[C@@H]2O[C@H](CO)[C@@H](O)[C@H](O)[C@H]2O)[C@@H]1O` yielded an AC50 [1] of over 10 mM and an MAC [2] of 16 mM.

In the case of `CO[C@H]1O[C@H](CO)[C@@H](O)[C@H](O)[C@@H]1O[C@H]1O[C@H](CO)[C@@H](O)[C@H](O)[C@@H]1O`, the AC50 [1] is reported as over 10 mM and the MAC [2] is reported as 16 mM.
